Reference: PubChem BioAssay (NCI)
Values joined by “and” are separate entries in the source; they are usually repeats but may differ in a detail not shown here. Equal entries are not always repeated.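 All cell lines were grown in 96-well plates and treated with compound for 48 hours. The concentration for 50% growth inhibition is given as GI50. Definition used: TGI = concentration required for complete inhibition of growth.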

Legend:
Assay in all cases: NCI tumour cell line growth inhibition, 48 h
SK-OV-3 ovarian = tested on: SK-OV-3 ovarian
COLO 205 colon = tested on: COLO 205 colon
IGROV1 ovarian = tested on: IGROV1 ovarian
SK-MEL-5 melanoma = tested on: SK-MEL-5 melanoma
SW-620 colon = tested on: SW-620 colon
SN12C renal = tested on: SN12C renal
HS 578T breast = tested on: HS 578T breast
HOP-62 NSCLC = tested on: HOP-62 NSCLC
KM12 colon = tested on: KM12 colon
RPMI-8226 leukemia = tested on: RPMI-8226 leukemia

Row | Compound | GI50 (SK-OV-3 ovarian) | TGI (SK-OV-3 ovarian) | GI50 (COLO 205 colon) | TGI (COLO 205 colon) | GI50 (IGROV1 ovarian) | TGI (IGROV1 ovarian) | GI50 (SK-MEL-5 melanoma) | TGI (SK-MEL-5 melanoma) | GI50 (SW-620 colon) | TGI (SW-620 colon) | GI50 (SN12C renal) | TGI (SN12C renal) | GI50 (HS 578T breast) | TGI (HS 578T breast) | GI50 (HOP-62 NSCLC) | TGI (HOP-62 NSCLC) | GI50 (KM12 colon) | TGI (KM12 colon) | GI50 (RPMI-8226 leukemia) | TGI (RPMI-8226 leukemia)
1 | CCN(CC)CC(O)c1cc(-c2ccc(Cl)cc2)nc2cc(Cl)ccc12 (centres undefined) | 3.44 µM | 12 µM | 1.65 µM | 3.34 µM | 0.518 µM | 2.47 µM | 1.61 µM | 2.99 µM | 1.73 µM | 3.33 µM | 2.96 µM | 12.7 µM | 2.51 µM | 7.32 µM | 1.93 µM | 4.05 µM | 1.7 µM | 3.18 µM | 2.43 µM | 6.15 µM
2 | Cc1nc2cc(Nc3nc(Nc4ccc(F)cc4)nc(N4CCCC4)n3)ccc2n1Cc1ccccc1 | 2.18 µM | 5.2 µM | 1.79 µM | 3.48 µM | 1.9 µM | 3.48 µM | 1.66 µM | 3.09 µM | 1.66 µM | 3.14 µM | 1.84 µM | 3.45 µM | 2.23 µM | 6.67 µM | 1.74 µM | 3.45 µM | 1.86 µM | 3.51 µM | 1.86 µM | 4.55 µM
3 | COc1cccc(/C=C2\CCc3ccccc3C2=O)c1 | 20.7 µM | 75.6 µM | 19.9 µM | 34.1 µM | 12.5 µM | 35 µM | 10.7 µM | 23 µM | 3.7 µM | 13.4 µM | 15.8 µM | 40.2 µM | 3.33 µM | 17.9 µM | 14.6 µM | 29.2 µM | 6.31 µM | 18.8 µM | 2.89 µM | 8.94 µM
4 | Cn1c(=O)c(-c2c(Cl)cccc2Cl)cc2cnc(Nc3ccc(I)cc3)nc21 | 0.0734 µM |  | 0.0458 µM | 0.324 µM | 0.506 µM | 3.77 µM | < 0.0104 µM | 0.157 µM | 0.0188 µM | 2.49 µM | 0.505 µM | 2.37 µM | < 0.01 µM | 0.235 µM |  | 0.668 µM | 0.0452 µM | 1.5 µM | < 0.0118 µM | 0.0785 µM
5 | O=C(NCCCl)NCc1ccccc1 |  | > 100 µM |  | > 100 µM |  | > 100 µM |  | > 100 µM |  | > 100 µM |  | > 100 µM |  | > 100 µM |  | > 100 µM |  | > 100 µM |  | > 100 µM
6 | COc1ccc2c(c1)CC1N(C)CCC13CCCCC23 (centres undefined) |  | > 100 µM |  | > 100 µM |  | > 100 µM |  | > 100 µM |  |  |  | > 100 µM |  | > 100 µM |  | > 100 µM |  | > 100 µM |  | > 100 µM
7 | CC(C)(N)C(=O)N[C@@H]1C(=O)N2[C@@H]1SC(C)(C)[C@@H]2C(=O)O |  | > 100 µM |  | > 100 µM |  | > 100 µM |  | > 100 µM |  | > 100 µM |  | > 100 µM |  | > 100 µM |  | > 100 µM |  | > 100 µM |  | > 100 µM
8 | Nc1nc(-c2ccc3ccccc3c2)cc(-c2cc(-c3ccc4ccccc4c3)nc(N)n2)n1 |  | > 100 µM |  | > 100 µM |  | > 100 µM |  | > 100 µM |  | > 100 µM |  | > 100 µM |  | > 100 µM |  | > 100 µM |  | > 100 µM |  | > 100 µM
9 | NCCCCCCCCCn1c2c(c3ccccc3c1=O)C(=O)c1ccccc1-2 | 10.1 µM | 18.7 µM | 10 µM | 25 µM | 10.2 µM | > 50 µM | 8.4 µM | 17.7 µM | 6.11 µM | 15.6 µM | 8.48 µM | 18.4 µM | 10.3 µM | 21.9 µM | 6.84 µM | 16.2 µM | 9.53 µM | 22.2 µM | 10.4 µM | 30.8 µM
10 | COc1cc2oc(-c3ccc(O)cc3)cc(=O)c2c(OC)c1O |  | > 100 µM |  | > 100 µM |  | > 100 µM |  | > 100 µM |  | > 100 µM |  | > 100 µM |  | > 100 µM |  | > 100 µM |  |  |  | > 100 µM
11 | O=C(NC(Cc1ccccc1)C(=O)CCl)OCc1ccccc1 (centres undefined) | 11.9 µM | 29.7 µM and 27.6 µM | 10 µM | 24.1 µM and 24 µM | 2.98 µM | 13.6 µM and 27.3 µM | 4.38 µM | 16.9 µM and 26.4 µM | 1.91 µM | 5.23 µM and 15.8 µM |  | 17.7 µM and 20.3 µM | 6.23 µM | 36 µM |  | 30.6 µM and 29.4 µM |  | 22.2 µM and 21.7 µM | 2.44 µM | 
12 | COc1cc(OC)c(/C=C/C(=O)c2c(O)cc(OC)c(C3CCN(C)CC3)c2OC)c(OC)c1 |  |  | 1.8 µM | 3.23 µM |  |  | 1.64 µM | 3.07 µM | 1.45 µM | 3.02 µM |  |  | 1.81 µM | 4.29 µM | 1.73 µM | 3.16 µM | 1.71 µM | 3.38 µM | 1.11 µM | 2.83 µM
13 | COC(=O)[C@H](C)[C@@H]1CC[C@](C)(CCC2=C(C)CCCC2(C)C)OO1 |  | > 25 µM |  | > 25 µM |  | > 25 µM |  | > 25 µM |  | > 25 µM |  | > 25 µM |  | > 25 µM |  | > 25 µM |  | > 25 µM |  | > 25 µM
14 | CC/C(=C(/CC)c1ccc(O)cc1)c1ccc(O)cc1 | 3.63 µM | 13 µM | 6.31 µM | 19.7 µM | 12.4 µM | 52.3 µM | 3.02 µM | 12.9 µM | 3.88 µM | 14.5 µM | 5.9 µM | 28.6 µM | 4.17 µM | 32 µM | 4.89 µM | 20.9 µM | 3.64 µM | 12.9 µM |  | 
15 | [Au+].c1c[n-]cn1.c1ccc([PH+](c2ccccc2)c2ccccc2)cc1 | 16.8 µM | 30.4 µM | 1.99 µM | 4.07 µM | 2.02 µM | 13.7 µM | 3.08 µM | 14.4 µM | 1.81 µM | 3.28 µM | 10.3 µM | 27.4 µM | 17.1 µM | > 100 µM | 6.24 µM | 43 µM | 14.5 µM | 37.9 µM | 8.93 µM | > 90.8 µM
16 | Cc1cc(Cl)ccc1Nc1nc2c(s1)C(=O)c1ccccc1C2=O |  | 26.1 µM |  | 16.8 µM |  | 11.9 µM |  | 3.34 µM |  | 4.01 µM |  | 3.33 µM |  | 5.79 µM |  | 9.72 µM |  | 10.7 µM |  | 11.1 µM
17 | NC(CSC1(c2ccc(Cl)cc2)c2ccccc2-c2ccccc21)C(=O)O (centres undefined) |  | > 100 µM |  | 28.9 µM |  | 29.4 µM |  | 30.6 µM |  | > 100 µM |  | 41.4 µM |  | 45.6 µM |  | 49.6 µM |  | 63.2 µM |  | > 100 µM
18 | O=[N+]([O-])c1cccc([I+]c2ccccc2)c1 | 13.8 µM | 27.5 µM | 10.1 µM | 33.6 µM | 5.29 µM | 27 µM | 2.27 µM | 10.8 µM | 6.42 µM | 26.7 µM | 10.4 µM | 22.8 µM | 10.1 µM | 68.2 µM | 5.19 µM | 18.8 µM | 12 µM | 26.1 µM | 4.09 µM | 30.7 µM
19 | Cn1cc(-c2ccc3nnc(C(F)(F)c4ccc5ncccc5c4)n3n2)cn1 | > 86.4 µM | > 100 µM | 59.6 µM | > 100 µM | 53.8 µM | > 100 µM | 43.2 µM | > 100 µM | > 95.8 µM | > 100 µM | 35.4 µM | > 100 µM | 34.2 µM | > 100 µM | 56.4 µM | > 100 µM | 43.6 µM | > 100 µM | 88.6 µM | > 100 µM
20 | ClCc1ccc(-c2ccc(Cn3cnc4c(Cl)ncnc43)cc2)cc1 | 1.98 µM | 6.14 µM | 1.82 µM | 4.27 µM | 3.59 µM | 57.2 µM | 2.49 µM | 7.17 µM | 2.43 µM | 6.63 µM | 1.64 µM | 3.69 µM | 3.06 µM | > 100 µM | 1.84 µM | 3.63 µM | 1.59 µM | 3.56 µM | 2.05 µM | 4.87 µM
21 | C=CCCCC(O)c1ccc(C(O)c2cnc3ccccc3c2)o1 (centres undefined) | > 100 µM | > 100 µM | 33.7 µM | > 100 µM |  |  | 9.52 µM | 22.4 µM | 38.1 µM | > 100 µM | 30.9 µM | 90.9 µM | 22.3 µM | > 100 µM | 21.2 µM | 64.9 µM | 28.1 µM | 77.9 µM | 17.9 µM | 72.2 µM
22 | NNc1ncnc2cccc(Cl)c12 |  | > 100 µM |  | > 100 µM |  | > 100 µM |  | > 100 µM |  | > 100 µM |  | > 100 µM |  | > 100 µM |  | > 100 µM |  | > 100 µM |  | 
23 | CN1c2ccccc2S(=O)(=O)n2c(COc3ccccc3)nnc21 |  | > 100 µM |  | > 100 µM |  | > 100 µM |  | > 100 µM |  | > 100 µM |  | > 100 µM |  | > 100 µM |  | > 100 µM |  | > 100 µM |  | 
24 | O=C(O)C1C2CCC(O2)C1C(=O)NCc1cccnc1 (centres undefined) |  | > 100 µM |  | > 100 µM |  |  |  | > 100 µM |  | > 100 µM |  | > 100 µM |  | > 100 µM |  | > 100 µM |  | > 100 µM |  | > 100 µM
